The test system of series [1] is female obese Zucker rats. Nature of the series: Serum lipid and glycemic control variables in chow-fed obese female Zucker rats, daily oral gavage for two weeks. Format: in vivo, rat. The conditions noted are these: Rattus norvegicus; for change in vivo at 100 mg/kg: 100 mg/kg daily oral; for change in vivo at 59 mg/kg: 59 mg/kg daily oral. The protocol:
Ten- to twelve-week old (400-500 grams) female Zucker fatty rats Cr1: (Zuc)-faBR were obtained from Charles River Laboratories. Animals were acclimated to the laboratory environment for seven days. During the acclimation and study period, animals were housed by group in shoebox polycarbonate cages on Cellu-Dri bedding. The temperature and humidity in the animals' quarters (68-78° F.; 30-75% RH) were monitored and the airflow in the room was sufficient to provide several exchanges per hour with 100% fresh filtered air. An automatic timing device provided an alternating 12-hour cycle of light and dark. Rats received pelleted Purina Laboratory Rodent Chow® (5001) prior to and during the drug intervention period except for a 6-hour phase prior to blood sampling. Fresh water was supplied ad libitum via an automatic watering system. Compounds were dissolved, suspended by mixing in a dosing vehicle consisting of 1.5% carboxymethylcellulose/0.2% Tween 20 or 20% ethanol and 80% polyethylene glycol-200 [v/v]. Dose volume of vehicle or vehicle plus each compound was set at 0.25% of body weight in order to deliver the appropriate dose. Doses were administered daily by oral gavage, approximately between 8-10 AM. Regarding blood sampling, animals were fasted for 6 hours prior to all blood collections. Prior to and after 7 days of dosing, a 1.0- to 2.0-mL sample of blood was collected by administering O2/CO2 anesthesia and bleeding from the orbital venous plexus. Following 14 days of dosing, blood was collected by cardiac puncture after euthanasia with CO2. All blood samples were processed for separation of serum and stored at −80° C. until analysis. Commercially available kits were used to determine serum triglycerides (Roche Diagnostic Corporation, Kit No. 148899 or Boehringer Mannheim, Kit No. 1488872), total cholesterol (Roche Diagnostic Corporation, Kit No. 450061), non-esterified fatty acids (Wako Chemicals, Kit No. 994-75409) and β-hydroxybutyrate (Wako Chemicals, Kit No. 417-73501 or Sigma Kit. No. 310-0) on a Hitachi 912 Automatic Analyzer (Roche Diagnostic Corporation). In some instances, an in-house cholesterol reagent was used to determine total serum cholesterol levels. Serum lipoprotein cholesterol levels were determined by lipoprotein profile analysis. Lipoprotein profiles were analyzed using gel-filtration chromatography on a Superose 6HR (1×30 cm) column equipped with on-line detection of total cholesterol as described by Kieft et al (Kieft, K. A.; Bocan, T. M.; Krause, B. R. Rapid on-line determination of cholesterol distribution among plasma lipoproteins after high-performance gel filtration chromatography. J. Lipid Res. 1991, 32, 859-866.). The total cholesterol content of each lipoprotein was calculated by multiplying the independent values determined for serum total cholesterol by the percent area of each lipoprotein in the profile. The percent body weight gain and the ratio of liver to body weight is also determined. Selected data are shown as absolute values or as a percent change of the pretreatment values in Tables 8 and 9.
Select compounds (214c, 210c, and 210g) were further evalutated in the Zucker rat by performing a full dose response and measuring additional scrum variables including markers for diabetes (Tables 10-12).

In series [2] the test system is primary rat hepatocytes. The series can be described thus: Inhibition of lipid synthesis ([1-14C]-acetate incorporation) in primary cultures of rat hepatocytes. In kind it is cell-based. The conditions noted are these: Hepatocyte, 4 h incubation with [1-14C]-acetate. The protocol:
Compounds were tested for inhibition of lipid synthesis in primary cultures of rat hepatocytes. Male Sprague-Dawley rats were anesthetized with intraperitoneal injection of sodium pentobarbital (80 mg/kg). Rat hepatocytes were isolated essentially as described by the method of Seglen (Seglen, P. O. Hepatocyte suspensions and cultures as tools in experimental carcinogenesis. J. Toxicol. Environ. Health 1979, 5, 551-560). Hepatocytes were suspended in Dulbecco's Modified Eagles Medium containing 25 mM D-glucose, 14 mM HEPES, 5 mM L-glutamine, 5 mM leucine, 5 mM alanine, 10 mM lactate, 1 mM pyruvate, 0.2% bovine serum albumin, 17.4 mM non-essential amino acids, 20% fetal bovine serum, […] and 20 μg/mL gentamycin) and plated at a density of 1.5×10^5 cells/cm^2 on collagen-coated 96-well plates. Four hours after plating, media was replaced with the same media without serum. Cells were grown overnight to allow formation of monolayer cultures. Lipid synthesis incubation conditions were initially assessed to ensure the linearity of [1-^14C]-acetate incorporation into hepatocyte lipids for up to 4 hours. Hepatocyte lipid synthesis inhibitory activity was assessed during incubations in the presence of 0.25 μCi [1-^14C]-acetate/well (final radiospecific activity in assay is 1 Ci/mol) and 0, 1, 3, 10, 30, 100 or 300 μM of compounds for 4 hours. At the end of the 4-hour incubation period, medium was discarded and cells were washed twice with ice-cold phosphate buffered saline and stored frozen prior to analysis. To determine total lipid synthesis, 170 μl of MicroScint-E® and 50 μl water was added to each well to extract and partition the lipid soluble products to the upper organic phase containing the scintillant. Lipid radioactivity was assessed by scintillation spectroscopy in a Packard TopCount NXT.

Where [3] appears, read: 168 h, 1 wk, Table 9, read-out: HDL-Cholesterol, Percent Change from Pre-Treatment.
Setting [4] is: 168 h, 1 wk, Table 9, read-out: NonHDL-Cholesterol, Percent Change from Pre-Treatment.
[5] abbreviates: 168 h, 1 wk, Table 9, read-out: TG, Percent Change from Pre-Treatment.
[6] abbreviates: 336 h, 2 wk, Table 9, read-out: HDL-Cholesterol, Percent Change from Pre-Treatment.
[7] abbreviates: 336 h, 2 wk, Table 9, read-out: NonHDL-Cholesterol, Percent Change from Pre-Treatment.
[8] abbreviates: 336 h, 2 wk, Table 9, read-out: TG, Percent Change from Pre-Treatment.
The mark [9] stands for this setting: Table 7, ranges: confidence of estimate insufficient to assign a value.
Setting [10] is: 168 h, 1 wk, 100% = 2-fold increase, Table 8, read-out: HDL-Cholesterol, Percent Change from Pre-Treatment.
Where [11] appears, read: 168 h, 1 wk, 100% = 2-fold increase, Table 8, read-out: NonHDL-Cholesterol, Percent Change from Pre-Treatment.
Where [12] appears, read: 168 h, 1 wk, 100% = 2-fold increase, Table 8, read-out: TG, Percent Change from Pre-Treatment.
[13] abbreviates: 336 h, 2 wk, 100% = 2-fold increase, Table 8, read-out: HDL-Cholesterol, Percent Change from Pre-Treatment.
The mark [14] stands for this setting: 336 h, 2 wk, 100% = 2-fold increase, Table 8, read-out: NonHDL-Cholesterol, Percent Change from Pre-Treatment.
The mark [15] stands for this setting: 336 h, 2 wk, 100% = 2-fold increase, Table 8, read-out: TG, Percent Change from Pre-Treatment.

The structures appear in SMILES notation. Like-named read-outs stand apart in the source and are kept apart here.

In turn, `CC(C)(CCCCCC(=O)CCCCC(C)(C)C(=O)O)C(=O)O` [Compound 226, 2,2,13,13-Tetramethyl-7-oxotetradecanedioc acid] registered a melting point of 61 to 62 °C. Further, the change in vivo at 100 mg/kg in series [1] (setting [3]) amounted to 240%. Further, the change in vivo at 100 mg/kg in series [1] (setting [4]) is -30%. Further, in series [1] (setting [5]), the change in vivo at 100 mg/kg was -65%. The change in vivo at 100 mg/kg in series [1] (setting [6]) was determined as 72%. Moreover, the change in vivo at 100 mg/kg in series [1] (setting [7]) is -51%. For the same compound, the change in vivo at 100 mg/kg in series [1] (setting [8]) was -62%. In addition, in series [2] (setting [9]), the IC50 was 3 µM.

In turn, `CC(C)(CCCCCCCC(=O)CCCCCCCC(C)(C)C(=O)O)C(=O)O` [Compound 107n, 10-Oxo-2,2,18,18-tetramethyl-nonadecanedioic acid] came in with a melting point of 74 to 77 °C. Further, the change in vivo at 100 mg/kg in series [1] (setting [10]) turned out to be 44%. In addition, in series [1] (setting [11]), the change in vivo at 100 mg/kg is -80%. Moreover, the change in vivo at 100 mg/kg in series [1] (setting [12]) was -85%. The change in vivo at 100 mg/kg in series [1] (setting [13]) came to 86%. Besides, the change in vivo at 100 mg/kg in series [1] (setting [14]) is -45%. Moreover, in series [1] (setting [15]), the change in vivo at 100 mg/kg was -64%. This compound also gave an IC50 in series [2] (Table 6) of 10 µM.

Regarding `CC(C)(CCCCC(=O)CCCCC1(C(=O)O)CC1)C(=O)O` [Compound 107c, 11-(1-Carboxycyclopropyl)-2,2-dimethyl-7-oxoundecanoic acid], the melting point lay within 49 to 52 °C. In addition, in series [1] (setting [10]), the change in vivo at 100 mg/kg came to 104%. Also, the change in vivo at 100 mg/kg in series [1] (setting [11]) was -84%. Further, the change in vivo at 100 mg/kg in series [1] (setting [12]) is -93%. Moreover, the change in vivo at 100 mg/kg in series [1] (setting [13]) was 248%. Further, the change in vivo at 100 mg/kg in series [1] (setting [14]) was -20%. In addition, in series [1] (setting [15]), the change in vivo at 100 mg/kg is -64%. The compound also showed an IC50 in series [2] (Table 6) of 0.6 µM.

`CC(C)(Cc1cccc(C(=O)c2cccc(CC(C)(C)C(=O)O)c2)c1)C(=O)O` [Compound 231, 3-{3-[3-(2-Carboxy-2-methylpropyl)-benzoyl]-phenyl}-2,2-dimethylpropionic acid] had a melting point of 46 to 48 °C. Besides, the change in vivo at 59 mg/kg in series [1] (setting [3]) was determined as 2%. Besides, the change in vivo at 59 mg/kg in series [1] (setting [4]) was -43%. For the same compound, in series [1] (setting [5]), the change in vivo at 59 mg/kg is -24%. In addition, in series [1] (setting [6]), the change in vivo at 59 mg/kg came to 7%. The change in vivo at 59 mg/kg in series [1] (setting [7]) is 34%. Moreover, the change in vivo at 59 mg/kg in series [1] (setting [8]) amounted to 7%.

In the case of `CC(C)(CO)CCCCCC(=O)CCCCCC(C)(C)CO` [Compound 214g, 1,15-Dihydroxy-2,2,14,14-tetramethylpentadecan-8-one], the change in vivo at 100 mg/kg was 76% in series [1] (setting [3]); -91% in series [1] (setting [4]); -92% in series [1] (setting [5]); 135% in series [1] (setting [6]); -88% in series [1] (setting [7]); -92% in series [1] (setting [8]). The IC50 in series [2] (setting [9]) was 3 µM.

In the case of `CC(C)(CO)CCCCC(=O)CCCC(C)(C)CO` [Compound 217, 1,12-Dihydroxy-2,2,11,11-tetramethyldodecan-6-one], the change in vivo at 100 mg/kg in series [1] (setting [3]) was 46%; in series [1] (setting [4]), -26%; in series [1] (setting [5]), -40%; in series [1] (setting [6]) it was 48%; in series [1] (setting [7]), 4%; in series [1] (setting [8]) it was -11%. The IC50 in series [2] (setting [9]) was 3 to 10 µM.

In the case of `CC(CCCC(=O)CCCC(C)(C(=O)O)c1ccccc1)(C(=O)O)c1ccccc1` (stereo not drawn) [Compound 210b, 2,10-Dimethyl-6-oxo-2,10-diphenylundecanedioic acid], the melting point lay in the range of 44 to 46 °C. In addition, the change in vivo at 100 mg/kg in series [1] (setting [3]) worked out at 4%. For the same compound, in series [1] (setting [4]), the change in vivo at 100 mg/kg turned out to be 36%. Moreover, the change in vivo at 100 mg/kg in series [1] (setting [5]) is 10%. Further, in series [1] (setting [6]), the change in vivo at 100 mg/kg came out at 12%. Further, in series [1] (setting [7]), the change in vivo at 100 mg/kg came out at 65%. The change in vivo at 100 mg/kg in series [1] (setting [8]) is 26%.

As for `CC(C)(CO)CCCC(=O)CCCC(C)(C)CO` [Compound 214a, 1,11-Dihydroxy-2,2,10,10-tetramethylundecan-6-one], the change in vivo at 100 mg/kg is 24% in series [1] (setting [3]); -23% in series [1] (setting [4]); -31% in series [1] (setting [5]); 2% in series [1] (setting [6]); 28% in series [1] (setting [7]); 0% in series [1] (setting [8]). Also, the half-maximal inhibitory concentration (IC50) in series [2] (setting [9]) is 27 µM.

As to `CC(C)Cc1ccc(C(C)(CCCCC(=O)CCCCC(C)(C(=O)O)c2ccc(CC(C)C)cc2)C(=O)O)cc1` (stereo not drawn) [Compound 210f, 2,12-Bis-(4-isobutylphenyl)-2,12-dimethyl-7-oxotridecanedioic acid], the change in vivo at 100 mg/kg is 11% in series [1] (setting [3]); -40% in series [1] (setting [4]); -63% in series [1] (setting [5]); 62% in series [1] (setting [6]); -44% in series [1] (setting [7]); -66% in series [1] (setting [8]). Also, in series [2] (setting [9]), the IC50 is 100 to 300 µM.

Source of the values: patent US7304093B2, “Ketone compounds and compositions for cholesterol management and related uses” (Esperion Therapeutics, Inc., priority 2000, dated 2007).
